# What was measured:
# SIRT1 [1] = target: T1, SIRT1 (Homo sapiens, UniProt Q96EB6); experiment: Trp mass spectrometry assay of SIRT1 activity; type: biochemical; conditions: Trp assay; for Trp EC1.5 (μM): concentration giving 150% activation of SIRT1; for Emax: percent maximum fold activation, read-out: Trp % Fold Act
# T1 sequence (Q96EB6 1-747): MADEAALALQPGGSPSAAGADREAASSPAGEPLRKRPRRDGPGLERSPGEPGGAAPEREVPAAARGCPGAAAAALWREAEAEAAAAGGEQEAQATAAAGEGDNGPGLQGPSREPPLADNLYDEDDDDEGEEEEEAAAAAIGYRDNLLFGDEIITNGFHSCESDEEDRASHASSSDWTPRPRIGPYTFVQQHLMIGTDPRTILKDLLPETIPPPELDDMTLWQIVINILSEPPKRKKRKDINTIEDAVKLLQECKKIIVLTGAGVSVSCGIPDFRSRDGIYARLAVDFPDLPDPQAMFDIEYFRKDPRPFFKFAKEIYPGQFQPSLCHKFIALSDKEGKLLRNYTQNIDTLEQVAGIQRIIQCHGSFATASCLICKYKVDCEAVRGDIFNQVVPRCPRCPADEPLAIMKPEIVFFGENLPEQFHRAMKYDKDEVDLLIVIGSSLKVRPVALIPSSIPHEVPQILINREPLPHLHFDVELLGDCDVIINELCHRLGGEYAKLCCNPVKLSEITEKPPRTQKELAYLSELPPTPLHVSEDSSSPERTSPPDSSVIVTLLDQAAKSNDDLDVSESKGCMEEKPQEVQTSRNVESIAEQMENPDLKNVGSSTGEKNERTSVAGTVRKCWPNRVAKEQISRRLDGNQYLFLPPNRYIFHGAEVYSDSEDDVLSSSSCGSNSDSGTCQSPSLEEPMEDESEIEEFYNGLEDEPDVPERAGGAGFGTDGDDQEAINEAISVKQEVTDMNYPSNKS
# Method in brief: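 Activation readout: EC1.5 (concentration raising activity 50% over control) and percent maximum activation, from mass-spec quantitation of OAADPR or deacetylated Trp peptide. Reaction: 0.5 μM acetylated Trp peptide, 120 μM βNAD+, 10 nM bacterially expressed N-His SIRT1, pH 7.5 HEPES buffer with […], 25 min at 25° C.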
# SIRT1 [2] = target: T1, SIRT1; experiment: TAMRA based mass spectrometry assay of SIRT1 activity; type: biochemical; conditions: TAMRA assay; for TAMRA EC1.5 (μM): concentration giving 150% activation of SIRT1; for Emax: percent maximum fold activation, read-out: TAMRA % Fold Act
# Method in brief: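 Deacetylation of a biotinylated, TAMRA-tagged p53-based peptide (0.5 μM) by 10 nM His-tagged SIRT1 with 120 μM βNAD+, 25 °C for 25 min, pH 8 Tris-acetate buffer, across a compound concentration range. Quenched by formic acid and read by mass spec as product peptide or OAADPR; activity relative to DMSO reactions, nicotinamide defining maximal inhibition.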
Trp EC1.5 (μM) (SIRT1 [1]),Emax (SIRT1 [1]),TAMRA EC1.5 (μM) (SIRT1 [2]),Emax (SIRT1 [2]),Compound
B (EC1.5 1-25 μM),< 350%,A (EC1.5<1 μM),≥ 350%,O=C(Nc1cnc2ccc(-c3ccccc3C(F)(F)F)nn12)c1cscn1 [Compound 218]
B (EC1.5 1-25 μM),< 350%,A (EC1.5<1 μM),≥ 350%,Cc1cc(C)nc(C(=O)Nc2cnc3ccc(-c4ccccc4C(F)(F)F)nn23)n1 [Compound 221]
B (EC1.5 1-25 μM),≥ 350%,B (EC1.5 1-25 μM),≥ 350%,"Cc1cc2ncc(C(=O)Nc3ccncc3)n2nc1-c1ccccc1C(F)(F)F [Compound 223, 7-methyl-N-(pyridin-4-yl)-6-(2-(trifluoromethyl)phenyl)imidazo[1,2-b]pyridazine-3-carboxamide]"
B (EC1.5 1-25 μM),≥ 350%,B (EC1.5 1-25 μM),≥ 350%,Cc1cc2ncc(C(=O)Nc3ccccn3)n2nc1-c1ccccc1C(F)(F)F [Compound 224]
B (EC1.5 1-25 μM),≥ 350%,A (EC1.5<1 μM),≥ 350%,Cc1c(-c2ccccc2C(F)(F)F)nn2c(C(=O)Nc3cccc(N4CCOCC4)n3)cnc2c1C [Compound 227]
C (EC1.5>25 μM),< 350%,A (EC1.5<1 μM),≥ 350%,Cc1cc(C)nc(NC(=O)c2cnc3c(C)c(C)c(-c4ccccc4Cl)nn23)c1 [Compound 230]
B (EC1.5 1-25 μM),< 350%,B (EC1.5 1-25 μM),≥ 350%,Cc1cncc(C(=O)Nc2cnc3ccc(-c4ccccc4C(F)(F)F)nn23)c1 [Compound 231]
C (EC1.5>25 μM),< 350%,A (EC1.5<1 μM),≥ 350%,Cc1ccnc(C(=O)Nc2cnc3ccc(-c4ccccc4C(F)(F)F)nn23)c1 [Compound 233]
A (EC1.5<1 μM),≥ 350%,A (EC1.5<1 μM),≥ 350%,O=C(Nc1cnc2ccc(-c3ccccc3C(F)(F)F)nn12)c1cccc(OC[C@H](O)CO)n1 [Compound 236]
C (EC1.5>25 μM),< 350%,A (EC1.5<1 μM),≥ 350%,Cc1cc(NC(=O)c2cnc3ccc(-c4ccccc4C(F)(F)F)nn23)nc(C)n1 [Compound 238]
B (EC1.5 1-25 μM),≥ 350%,B (EC1.5 1-25 μM),≥ 350%,O=C(Nc1cccnc1)c1cnn2ccc(-c3ccccc3C(F)(F)F)nc12 [Compound 239]
B (EC1.5 1-25 μM),< 350%,B (EC1.5 1-25 μM),< 350%,Cc1cc(NC(=O)c2cnc3ccc(-c4ccccc4F)nn23)ccn1 [Compound 242]
A (EC1.5<1 μM),< 350%,B (EC1.5 1-25 μM),< 350%,COc1cccc(NC(=O)c2cnc3ccc(-c4ccccc4F)nn23)n1 [Compound 244]
B (EC1.5 1-25 μM),< 350%,B (EC1.5 1-25 μM),≥ 350%,O=C(Nc1ccc(CN2CCCC2)cn1)c1cnc2ccc(-c3ccccc3C(F)(F)F)nn12 [Compound 248]
B (EC1.5 1-25 μM),< 350%,A (EC1.5<1 μM),≥ 350%,O=C(Nc1cnn2ccc(-c3ccccc3C(F)(F)F)nc12)c1ccccn1 [Compound 249]
C (EC1.5>25 μM),< 350%,C (EC1.5>25 μM),< 350%,O=C(Nc1cnn2ccc(-c3ccccc3C(F)(F)F)nc12)c1ccncc1 [Compound 251]
C (EC1.5>25 μM),< 350%,B (EC1.5 1-25 μM),≥ 350%,O=C(Nc1cnn2ccc(-c3ccccc3C(F)(F)F)nc12)c1ccncn1 [Compound 254]
B (EC1.5 1-25 μM),< 350%,A (EC1.5<1 μM),≥ 350%,O=C(Nc1cnn2ccc(-c3ccccc3C(F)(F)F)nc12)c1cccc(CN2CCOCC2)n1 [Compound 255]

Trp EC1.5 (μM) (SIRT1 [1]),Emax (SIRT1 [1]),TAMRA EC1.5 (μM) (SIRT1 [2]),Emax (SIRT1 [2]),Compound
B (EC1.5 1-25 μM),< 350%,A (EC1.5<1 μM),< 350%,Cc1cc(NC(=O)c2cnc3ccc(-c4ccccc4F)nn23)cc(C)n1 [Compound 257]
B (EC1.5 1-25 μM),< 350%,A (EC1.5<1 μM),≥ 350%,Cc1cc(NC(=O)c2cnc3ccc(-c4ccccc4Cl)nn23)cc(C)n1 [Compound 260]
A (EC1.5<1 μM),< 350%,A (EC1.5<1 μM),< 350%,COc1cccc(NC(=O)c2cnc3ccc(-c4ccccc4Cl)nn23)n1 [Compound 261]
B (EC1.5 1-25 μM),< 350%,B (EC1.5 1-25 μM),≥ 350%,O=C(Nc1ccc(OCC(O)CO)nc1)c1cnc2ccc(-c3ccccc3C(F)(F)F)nn12 (centres unmarked) [Compound 263]
B (EC1.5 1-25 μM),< 350%,B (EC1.5 1-25 μM),≥ 350%,"O=C(Nc1ncccn1)c1cnn2ccc(-c3ccccc3C(F)(F)F)nc12 [Compound 266, N-(pyrimidin-2-yl)-5-(2-(trifluoromethyl)phenyl)pyrazolo[1,5-a]pyrimidine-3-carboxamide]"
B (EC1.5 1-25 μM),< 350%,A (EC1.5<1 μM),≥ 350%,O=C(Nc1cnccn1)c1cnn2ccc(-c3ccccc3C(F)(F)F)nc12 [Compound 267]
B (EC1.5 1-25 μM),≥ 350%,A (EC1.5<1 μM),≥ 350%,O=C(Nc1cccc(CN2CCOCC2)n1)c1cnn2ccc(-c3ccccc3C(F)(F)F)nc12 [Compound 269]
B (EC1.5 1-25 μM),< 350%,A (EC1.5<1 μM),≥ 350%,CC(C)c1csc(C(=O)Nc2cnc3ccc(-c4ccccc4C(F)(F)F)nn23)n1 [Compound 272]
B (EC1.5 1-25 μM),≥ 350%,A (EC1.5<1 μM),≥ 350%,Cc1nc(C(=O)Nc2cnc3ccc(-c4ccccc4C(F)(F)F)nn23)cs1 [Compound 273]
B (EC1.5 1-25 μM),< 350%,A (EC1.5<1 μM),≥ 350%,Cc1cc(C(=O)Nc2cnc3ccc(-c4ccccc4C(F)(F)F)nn23)nc(C)n1 [Compound 275]
C (EC1.5>25 μM),< 350%,B (EC1.5 1-25 μM),< 350%,O=C(Nc1cnc2ccc(-c3ccccc3F)nn12)c1ccccn1 [Compound 279]
C (EC1.5>25 μM),< 350%,C (EC1.5>25 μM),< 350%,O=C(Nc1cnc2ccc(-c3ccccc3F)nn12)c1ccncn1 [Compound 281]
C (EC1.5>25 μM),< 350%,C (EC1.5>25 μM),< 350%,O=C(Nc1ccnc(OCC(O)CO)c1)c1cnc2ccc(-c3ccccc3F)nn12 (centres unmarked) [Compound 284]
B (EC1.5 1-25 μM),< 350%,B (EC1.5 1-25 μM),< 350%,Cc1cc(OCC(O)CO)nc(NC(=O)c2cnc3ccc(-c4ccccc4Cl)nn23)n1 (centres unmarked) [Compound 285]
C (EC1.5>25 μM),< 350%,A (EC1.5<1 μM),≥ 350%,O=C(Nc1cnc2ccc(-c3ccccc3Cl)nn12)c1ccccn1 [Compound 287]
C (EC1.5>25 μM),< 350%,B (EC1.5 1-25 μM),≥ 350%,O=C(Nc1cnc2ccc(-c3ccccc3Cl)nn12)c1ncccn1 [Compound 290]
C (EC1.5>25 μM),< 350%,B (EC1.5 1-25 μM),≥ 350%,O=C(Nc1cnc2ccc(-c3ccccc3Cl)nn12)c1cscn1 [Compound 291]

# — patent publication US9957271B2, “Substituted bicyclic aza-heterocycles and analogues as sirtuin modulators” (GlaxoSmithKline, LLC, priority 2012, dated 2018)
